From patent US20080045580A1, “Novel Isoxazole Compounds Having Ppar Agonist Activity” (DR REDDY'S LABORATORIES LIMITED, priority 2004, published 2008)
Several values for one entry are separate records, joined by “and”; a condition that tells them apart may be missing. Equal values may be shown once. Each block holds one compound with its values, some of them ahead of it.

What was measured:
[1] = biological target: T1, human PPARα (Homo sapiens, UniProt Q07869); experiment: in vitro PPARα transactivation (GAL4-LBD luciferase reporter in HEK-293 cells); assay type: cell-based
T1 construct: expressed in transfected cells; host or cells: HEK-293
T1 sequence (Q07869 239-466 limits assumed): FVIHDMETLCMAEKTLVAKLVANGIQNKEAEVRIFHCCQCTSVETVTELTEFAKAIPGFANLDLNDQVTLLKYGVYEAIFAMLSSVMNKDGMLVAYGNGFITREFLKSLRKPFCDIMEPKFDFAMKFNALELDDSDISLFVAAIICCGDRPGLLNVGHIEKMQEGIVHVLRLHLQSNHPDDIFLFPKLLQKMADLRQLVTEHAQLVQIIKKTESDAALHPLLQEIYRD
Text: Generally, suitable PPAR agonists are believed to be useful for attenuating and/or treatment of diabetic dyslipidemia, metabolic syndrome, diabetes, cardiovascular disease, and obesity. The following procedure was used for in vitro determination of PPARα, γ and δ transactivation.
(§1) The ligand binding domain of human PPARγ1, PPARα or PPARδ was fused to the C-terminal end of DNA binding domain of yeast transcription factor GAL4 in eukaryotic expression vector. Using SuperFect (Qiagen), HEK-293 cells were transfected with this plasmid and a reporter plasmid harboring the luciferase gene driven under the control of 5 tandem GLA4 response elements. In some experiments, pAdVantage vector (Promega) was used to enhance luciferase expression. Compounds were added approximately 48 hours after transfection at various concentrations and incubated overnight. The cells were lysed and the luciferase activity was measured using the LucLite kit in Top Count (Packard). Luciferase activity was expressed as fold activation relative to untreated cells in the same experiment.

[2] = biological target: T2, human PPARγ1 (Homo sapiens, UniProt P37231); experiment: in vitro PPARγ transactivation (GAL4-LBD luciferase reporter in HEK-293 cells); assay type: cell-based
T2 construct: expressed in transfected cells; host or cells: HEK-293
T2 sequence (P37231 238-503 limits assumed): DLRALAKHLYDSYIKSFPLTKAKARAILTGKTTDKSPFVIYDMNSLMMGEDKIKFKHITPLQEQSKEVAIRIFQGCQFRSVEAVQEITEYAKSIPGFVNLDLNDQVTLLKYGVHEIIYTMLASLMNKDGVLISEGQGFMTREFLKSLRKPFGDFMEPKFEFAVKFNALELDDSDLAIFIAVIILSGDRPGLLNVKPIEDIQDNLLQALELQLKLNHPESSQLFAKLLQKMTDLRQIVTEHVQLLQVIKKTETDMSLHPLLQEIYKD
Text: The following procedure was used for in vitro determination of PPARα, γ and δ transactivation.
as §1

[3] = tested on: Male Swiss albino mice; experiment: plasma triglyceride lowering in Swiss albino mice; assay type: in vivo; details: plasma triglycerides
Protocol: Male Swiss albino mice (SAM) were obtained from National Institute Nutrition (NIN, Hyderabad, India) and housed in Dr. Reddy's Laboratories Ltd (DRL) animal house. All these animals were maintained under 12 hour light and dark cycle at 25±1° C. Animals were given standard laboratory chow (NIN, Hyderabad, India) and water, ad libitum. Mice of 20-25 grams body weight range were used. See Olivier, et al., Atherosclerosis, 1988, 70:107-114, incorporated herein by reference in its entirety. The test compounds were administered orally to mice at the doses shown in the following in table for 6 days. […] After centrifugation, plasma was separated for plasma triglyceride and total cholesterol measurement. See Wieland, Methods of Enzymatic Analysis, Bergermeyer, ed., 1963, 211-214; Trinder, Ann. Clin. Biochenz., 1969, 6:24-27, incorporated herein by reference in their entireties. Measurement of cholesterol and plasma triglyceride was done using a […] autoanalyser (Merck). The percent reductions in plasma triglycerides (TG)/total cholesterol were calculated according to the following formula: [formula] OC=Zero day control group value OT=Zero day treated group value TC=Test day control group value TT=Test day treated group value.

[4] = tested on: hypercholesterolemic Male Sprague Dawley rats; experiment: lipid lowering in hypercholesterolemic Sprague Dawley rats; assay type: in vivo; details: hypercholesterolemic SD rats, 3 mg/kg orally for 3 days; for % Reduction TG: plasma triglycerides; for % Reduction TC: total cholesterol; for HDL % increase: values represent % increase
Protocol: Male Sprague Dawley rats (NIN stock) were bred in DRL animal house. Animals were maintained under 12 hour light and dark cycle at 25±1° C. Rats of 180-200 gram body weight range were used for the experiment. Animals were made hypercholesterolemic by feeding 2% cholesterol and 1% sodium cholate mixed with standard laboratory chow (NIN) for 6 days. Throughout the experimental period the animals were maintained on the same diet. Control rats were treated with vehicle alone (0.25% CMC; 10 ml/kg). Blood samples were collected in fed state 1 hour after drug administration on 0 and 3 days of treatment from the retro-orbital sinus through heparinized capillary tubes containing EDTA. After centrifugation, plasma sample was separated for total cholesterol, HDL and plasma triglyceride measurement. Measurement of total cholesterol, HDL and plasma triglyceride was done using a Vitalab Selectra autoanalyser (Merck). HDL was measured using a commercial kit. LDL and VLDL cholesterol were calculated from the data obtained for total cholesterol, HDL and plasma triglyceride.
The percent reductions in plasma triglycerides (TG)/total cholesterol (TC) were calculated as described in Example 55. The levels of LDL and VLDL cholesterol were calculated according to the following formulas: LDL cholesterol in mg/dl=[Total cholesterol−HDL cholesterol−Triglyceride/5] VLDL cholesterol in mg/dl=[Total cholesterol−HDL cholesterol−LDL cholesterol]

PPARα luciferase fold activation relative to untreated cells ([1]; 1 μM): 1.2 | PPARα luciferase fold activation relative to untreated cells ([1]; 10 μM): 1.0 | PPARα luciferase fold activation relative to untreated cells ([1]; 50 μM): 1.0 | melting point: 83 to 85 °C | PPARγ luciferase fold activation relative to untreated cells ([2]; 1 μM): 1.4 | PPARγ luciferase fold activation relative to untreated cells ([2]; 10 μM): 2.4 | PPARγ luciferase fold activation relative to untreated cells ([2]; 50 μM): 2.4
Structure (SMILES): CCOC(=O)C1(Oc2ccc(OCc3cc(-c4ccccc4)no3)cc2)CCCC1 [Example 2]

melting point: 132 to 134 °C
Structure (SMILES): CCC(C)(Oc1ccc(OCc2cc(-c3ccc(OCc4ccccc4)cc3)no2)cc1)C(=O)O (stereo not shown) [Example 3]

melting point: 142 to 144 °C
Structure (SMILES): CCC(C)(Oc1ccc(OCc2cc(-c3ccc(O)cc3)no2)cc1)C(=O)O (stereo not shown) [Example 4]

PPARα luciferase fold activation relative to untreated cells ([1]; 1 μM): 1.3 | PPARα luciferase fold activation relative to untreated cells ([1]; 10 μM): 2.6 | PPARα luciferase fold activation relative to untreated cells ([1]; 50 μM): 3.5 | melting point: 70 to 74 °C | PPARγ luciferase fold activation relative to untreated cells ([2]; 1 μM): 0.5 | PPARγ luciferase fold activation relative to untreated cells ([2]; 10 μM): 1.2 | PPARγ luciferase fold activation relative to untreated cells ([2]; 50 μM): 4.1
Structure (SMILES): CCC(C)(Oc1ccc(OCc2cc(-c3ccccc3)no2)cc1)C(=O)O (stereo not shown) [Example 8]
% reduction in TG ([3]; 3 mg/kg orally for 6 days): 52%

PPARα luciferase fold activation relative to untreated cells ([1]; 1 μM): 0.8 | PPARα luciferase fold activation relative to untreated cells ([1]; 10 μM): 1.2 | PPARα luciferase fold activation relative to untreated cells ([1]; 50 μM): 1.7 | melting point: 135 to 137 °C | PPARγ luciferase fold activation relative to untreated cells ([2]; 1 μM): 1.2 | PPARγ luciferase fold activation relative to untreated cells ([2]; 10 μM): 0.9 | PPARγ luciferase fold activation relative to untreated cells ([2]; 50 μM): 2.4
Structure (SMILES): O=C(O)C1(Oc2ccc(OCc3cc(-c4ccccc4)no3)cc2)CCCC1 [Example 9]

melting point: 166 to 168 °C
Structure (SMILES): CC(C)(Oc1ccc(OCc2cc(-c3ccc(C(F)(F)F)cc3)no2)cc1)C(=O)O [Example 12]

melting point: 106 to 108 °C
Structure (SMILES): Cc1cc(SCc2cc(-c3ccc(C(F)(F)F)cc3)no2)ccc1OC(C)(C)C(=O)O [Example 13]

melting point: 120 to 122 °C
Structure (SMILES): CC(C)(Sc1ccc(OCc2cc(-c3ccc(C(F)(F)F)cc3)no2)cc1)C(=O)O [Example 14]

melting point: 105 to 108 °C
Structure (SMILES): CC[C@@](C)(Oc1ccc(OCCCc2cc(-c3ccccc3)no2)cc1)C(=O)O [Example 15]

melting point: 121 to 122 °C
Structure (SMILES): CC[C@](C)(Oc1ccc(OCCCc2cc(-c3ccccc3)no2)cc1)C(=O)O [Example 16]

melting point: 168 to 170 °C
Structure (SMILES): CC(C)(Oc1ccc(OCc2cc(-c3ccc(-c4ccccc4)cc3)no2)cc1)C(=O)O [Example 18]

melting point: 188 to 190 °C
Structure (SMILES): CCC(C)(Oc1ccc(OCc2cc(-c3ccc(-c4ccccc4)cc3)no2)cc1)C(=O)O (stereo not shown) [Example 19]

melting point: 118 to 120 °C
Structure (SMILES): CCC(C)(Oc1ccc(OC/C=C/c2cc(-c3ccccc3)no2)cc1)C(=O)O (stereo not shown) [Example 20]

melting point: 110 to 112 °C
Structure (SMILES): CCC(C)(Oc1ccc(OCCCc2cc(-c3ccc(C(F)(F)F)cc3)no2)cc1)C(=O)O (stereo not shown) [Example 21]

melting point: 128 to 130 °C
Structure (SMILES): CCC(C)(Oc1ccc(OCc2cc(-c3ccc([N+](=O)[O-])cc3)no2)cc1)C(=O)O (stereo not shown) [Example 22]

melting point: 118 to 120 °C
Structure (SMILES): CCC(C)(Oc1ccc(OCc2cc(-c3ccc(F)cc3)no2)cc1)C(=O)O (stereo not shown) [Example 23]

Structure (SMILES): CC[C@@](C)(Oc1ccc(OCc2cc(-c3ccc(OS(C)(=O)=O)cc3)no2)cc1)C(=O)O [Example 26]
% reduction in TG ([3]; 1 mg/kg orally for 6 days): 50% | PPARα luciferase fold activation relative to untreated cells ([1]; 1 μM): 1.8 | PPARα luciferase fold activation relative to untreated cells ([1]; 10 μM): 5.7 | PPARα luciferase fold activation relative to untreated cells ([1]; 50 μM): 5.8 | PPARγ luciferase fold activation relative to untreated cells ([2]; 1 μM): 0.1 | PPARγ luciferase fold activation relative to untreated cells ([2]; 10 μM): 1.0 | PPARγ luciferase fold activation relative to untreated cells ([2]; 50 μM): 5.3

PPARα luciferase fold activation relative to untreated cells ([1]; 1 μM): 1.5 | PPARα luciferase fold activation relative to untreated cells ([1]; 10 μM): 4.8 | PPARα luciferase fold activation relative to untreated cells ([1]; 50 μM): 5.9 | PPARγ luciferase fold activation relative to untreated cells ([2]; 1 μM): 2.0 | PPARγ luciferase fold activation relative to untreated cells ([2]; 10 μM): 2.8 | PPARγ luciferase fold activation relative to untreated cells ([2]; 50 μM): 12.4
Structure (SMILES): CC(C)(Oc1ccc(CCCc2cc(-c3ccccc3)no2)cc1)C(=O)O [Example 28, 2-methyl-2-{4-[3-(3-phenylisoxazol-5-yl)propyl]phenoxy}propanoic acid]
% reduction in TG ([3]; 3 mg/kg orally for 6 days): 48% | % Reduction TG [4]: 62% | % Reduction TC [4]: 70% | HDL % increase [4]: 132%

melting point: 100 to 102 °C
Structure (SMILES): CCC(C)(Oc1ccc(OCc2cc(-c3ccc(C)cc3)no2)cc1)C(=O)OC (stereo not shown) [Example 29, 2-Methyl-2-[4-(3-(4-methylphenyl)isoxazol-5-ylmethoxy)phenoxy]butyric acid, methyl ester]

melting point: 138 to 140 °C
Structure (SMILES): CCC(C)(Oc1ccc(OCc2cc(-c3ccc(C)cc3)no2)cc1)C(=O)O (stereo not shown) [Example 30, 2-Methyl-2-[4-(3-(4-methylphenyl)isoxazol-5-ylmethoxy)phenoxy]butyric acid]

melting point: 98 to 100 °C
Structure (SMILES): CCC(C)(Oc1ccc(OCCCc2cc(-c3ccc(C)cc3)no2)cc1)C(=O)O (stereo not shown) [Example 32, 2-Methyl-2-{4-[3-(3-(4-methylphenyl)isoxazol-5-yl)propoxy]phenoxy}butyric acid]

melting point: 130 to 132 °C
Structure (SMILES): CCC(C)(Oc1ccc(OCCCc2cc(-c3ccc(Cl)cc3)no2)cc1)C(=O)O (stereo not shown) [Example 34, 2-Methyl-2-{4-[3-(3-(4-chlorophenyl)isoxazol-5-yl)propoxy]phenoxy}butyric acid]

Structure (SMILES): O=C(O)[C@]1(Cc2ccc(OCc3cc(-c4ccc(C(F)(F)F)cc4)no3)cc2)CCCO1 [Example 37]
% reduction in TG ([3]; 3 mg/kg orally for 6 days): 69% | % Reduction TG [4]: 68% | % Reduction TC [4]: 69% | % Reduction LDL ([4]; LDL cholesterol calculated from TC, HDL, TG): 75% | HDL % increase [4]: 138%

PPARα luciferase fold activation relative to untreated cells ([1]; 1 μM): 1.1 (1.1) | PPARα luciferase fold activation relative to untreated cells ([1]; 10 μM): 3.9 | PPARα luciferase fold activation relative to untreated cells ([1]; 50 μM): 4.7 | PPARγ luciferase fold activation relative to untreated cells ([2]; 1 μM): 1.8 | PPARγ luciferase fold activation relative to untreated cells ([2]; 10 μM): 3.9 | PPARγ luciferase fold activation relative to untreated cells ([2]; 50 μM): 9.0
Structure (SMILES): O=C(O)C1(Cc2ccc(OCc3cc(-c4ccccc4)no3)cc2)CCCO1 (stereo not shown) [Example 39]
% reduction in TG ([3]; 3 mg/kg orally for 6 days): 44%

Structure (SMILES): Cc1cccc(Nc2cc(Cl)nc(SCC(=O)O)n2)c1C [Wyeth 14643, reference compound]
PPARα luciferase fold activation relative to untreated cells ([1]; 10 μM): 1.7 and 1.6 and 1.4 and 2.5 and 2.7 and 2.4 | PPARα luciferase fold activation relative to untreated cells ([1]; 50 μM): 3.4 and 5.0 and 4.2 and 5.2 and 4.1 and 6.1 and 4.6 and 4.0
